Data on five compounds can be found in patent publication US20060079463A1 (priority 2003, published 2006).

The test system of data set [1] is Mouse Hepatoma H22. The data set is described as follows: Kunming mouse Hepatoma H22 model, in vivo tumor growth. The settings on record: for Compared to Glucose group Inhibition (%) / Compared to Saline group Inhibition (%) / Tumor size Mean ± SD: Table 6.2; for Compared to Glucose group Inhibition (%) / Compared to Saline group Inhibition (%) / Tumor size Mean ± SD / Tumor Size (Mean ± SD, g) / Tumor Inhibition (%): 10 days; for Tumor Size (Mean ± SD, g) / Tumor Inhibition (%): Table 2.2; for Tumor Inhibition (%): vs saline. The procedure: (§1) (2) Kunming mouse Hepatoma H22 model: Mouse Hepatoma H22 ascites tumor cells, 1×10E6 cells in 0.2 ml saline per mouse, were injected subcutaneously to the right axillary space of 5- to 6-week old Kunming mice.
(§2) C. […] The amount of either tested drug for one kg mouse was prepared as 10 ml solution, and 10 micro-liters per gram of mouse were injected intraperitoneally, once or twice daily, for 10 consecutive days for the Kunming mice with Sarcoma S-180 and Hepatoma H22, and for 15 consecutive days for C57BL/6 mice with melanoma B16. 50% glucose, 30 ml/kg, was given by gavage to selected groups of mice receiving the tested drug 60 to 90 minutes before each injection. One group of mice received saline only while another group of mice received the glucose treatment without the tested drug; these groups served as the saline-only control and the glucose-only control, respectively. A third group of mice received intraperitoneal injection of cyclophosphamide (CTX), or 5-Fluorouracil (5FU), 25 to 50 mg/kg body weight, was included in some experiments as positive control. At the end of the experiment, mouse body weight was taken, and the Sarcoma S-180, or Hepatoma H22 tumors were dissected and weighted, while the tumor size of melanoma B16 was measured using a caliper. Melanoma B16 tumor volume was calculated using the following equation: Tumor volume=S*S*L*0.5, where S is the short diameter, and L stands for long diameter of the tumor according to Beck M T et al. (Cancer Research 63:3598, 2003).

Data set [2] deals with Mouse Sarcoma S-180. Nature of the data set: Kunming mouse Sarcoma S-180 model, in vivo tumor growth. The settings on record: for Tumor Size (Mean ± SD, g) / Tumor Inhibition (%) / Tumor Weight (Mean ± SD, g) / Tumor Inhibition Rate (%): 10 days; for Tumor Weight (Mean ± SD, g) / Tumor Inhibition Rate (%): Table 3.2. As for the experimental part: (§3) (1) Kunming mouse Sarcoma S-180 model: Mouse Sarcoma S-180 ascites tumor cells, 1×10E6 cells resuspended in 0.2 ml saline per mouse, were injected subcutaneously to the right axillary space of 5- to 6-week old Kunming mice.
as §2

The nature of data set [3]: Body weight of mice bearing Hepatoma H22. The note with it: Table 2.1; CTX 25 mg/kg i.p., 1 dose/day, 10 days. The procedure:
as §1
as §2, with “A third group of mice received intraperitoneal injection of cyclophosphamide (CTX), or 5-Fluorouracil (5FU), 25 to 50 mg/kg body weight, was included in some experiments as positive control.” left out

Data set [4] relates to Mouse melanoma B16. The data set is described as follows: C57BL/6 mouse melanoma B16 model, tumor growth. Type of data set: in vivo. The note with it: for Tumor Size (Mean ± SD, mm3) / Tumor Inhibition (%): Table 4.2, 1 dose/day, 15 days; for Tumor Inhibition (%): vs saline. As for the experimental part:
(§4) (3) C57BL/6 mouse melanoma B16 model: Mouse melanoma B16 cells, 1×10E7 cells in 0.2 ml of saline per mouse, were injected subcutaneously into right axillary space of 6 to 8 week old C57BL/6 mice. The mice were randomly divided into groups after tumor cell inoculation.
as §2

Data set [5] in a line: Body weight of mice bearing Sarcoma S-180. The settings on record: CTX 30 mg/kg i.p., 1 dose/day, 10 days. As for the experimental part:
as §3, §2

Data set [6] is described as follows: Body weight of mice with B16 melanoma. The settings on record: Table 4.1; CTX 50 mg/kg i.p., 1 dose/day, 15 days. The procedure:
as §4
as §2, with “A third group of mice received intraperitoneal injection of cyclophosphamide (CTX), or 5-Fluorouracil (5FU), 25 to 50 mg/kg body weight, was included in some experiments as positive control.” left out

The conditions of data set [7]: human, in vivo; cited from earlier work.
Data set [8] has as its system human melanoma xenographts. The note with it: a dose of MIBG under hyperglycemic conditions, SCID mice; cited from earlier work.
A short description of data set [9]: Toxicity observation during URIN and MAIN administration in tumor-bearing mice. Type of data set: in vivo. The note with it: i.p., up to 4480 mg/kg once or twice daily. As for the experimental part:
as §2

For data set [10] the following is noted: cited from earlier work.
Where [11] appears, read: MAIN H 3750 mg/kg i.p., 2 doses/day, glucose pre-treatment.
The mark [12] stands for this setting: MAIN L 1500 mg/kg i.p., 2 doses/day, glucose pre-treatment.
Where [13] appears, read: MAIN M 2500 mg/kg i.p., 2 doses/day, glucose pre-treatment.
Setting [14] is: URIN 4480 mg/kg i.p., 2 doses/day, no glucose.
Setting [15] is: URIN H 4480 mg/kg i.p., glucose pre-treatment.
Where [16] appears, read: URIN L 1680 mg/kg i.p., glucose pre-treatment.

For the compound `O=c1[nH]cc(F)c(=O)[nH]1` [5FU, 5-Fluorouracil], in data set [1] (5FU 25 mg/kg i.p., 1 dose/day), the “Compared to Glucose group Inhibition (%)” value is listed as 71.4%, the “Compared to Saline group Inhibition (%)” value is recorded as 77.4% and the “Tumor size Mean ± SD” value amounted to 0.48 ± 0.25 g.

Consider `O=P1(N(CCCl)CCCl)NCCCO1` (stereo not shown) [CTX, cyclophosphamide], for which the “Tumor Size (Mean ± SD, g)” value is 0.53 ± 0.14 g in data set [2] (Table 1.2, CTX 30 mg/kg i.p., 1 dose/day) and 1.21 ± 0.37 g in [1] (CTX 25 mg/kg i.p., 1 dose/day). Also, the “Tumor Inhibition (%)” value in data set [2] (Table 1.2, CTX 30 mg/kg i.p., 1 dose/day, vs saline) is listed as 61.3%; in data set [1] (CTX 25 mg/kg i.p., 1 dose/day) it was 48.1%; in data set [4] (CTX 50 mg/kg i.p.), 97%. The “Tumor Weight (Mean ± SD, g)” value in data set [2] (CTX 30 mg/kg i.p., 1 dose/day) turned out to be 0.53 ± 0.22 g. Also, the “Tumor Inhibition Rate (%)” value in data set [2] (CTX 30 mg/kg i.p., 1 dose/day, vs saline) worked out at 73.0%. In addition, the “Body weight (Mean ± SD, g) End” value in data set [3] came out at 32.6 ± 2.5 g; in data set [5] (Table 1.1), 23.5 ± 1.7 g; in data set [5] (Table 3.1), 23.0 ± 2.9 g; in data set [6], 18.6 ± 1.6 g. Further, the “Body weight (Mean ± SD, g) Start” value in [3] was 24.6 ± 1.0 g; in data set [5] (Table 1.1) it was 21.9 ± 1.1 g; in [5] (Table 3.1) it was 21.4 ± 1.0 g; in data set [6], 20.3 ± 1.5 g. For the same compound, the “Tumor Size (Mean ± SD, mm3)” value in [4] (CTX 50 mg/kg i.p.) came to 118 ± 100 mm3.

As to `C1N2CN3CN1CN(C2)C3.O=C(O)C(O)c1ccccc1` (stereo not shown) [MAIN, methenamine mandelate], the “Tumor Size (Mean ± SD, g)” value in data set [2] (Table 5.2, MAIN H 3714 mg/kg i.p., 2 doses/day, glucose pre-treatment) is reported as 1.25 ± 0.41 g; in data set [2] (Table 5.2, MAIN L 1485 mg/kg i.p., 2 doses/day, glucose pre-treatment), 2.14 ± 0.60 g; in data set [2] (Table 5.2, MAIN M 2320 mg/kg i.p., 2 doses/day, glucose pre-treatment), 1.85 ± 0.62 g. Also, the “Tumor Inhibition (%)” value was 45.9% in [2] (Table 5.2, MAIN H 3714 mg/kg i.p., 2 doses/day, glucose pre-treatment, vs glucose group); 7.4% in data set [2] (Table 5.2, MAIN L 1485 mg/kg i.p., 2 doses/day, glucose pre-treatment, vs glucose group); 19.9% in data set [2] (Table 5.2, MAIN M 2320 mg/kg i.p., 2 doses/day, glucose pre-treatment, vs glucose group). Also, the “Compared to Glucose group Inhibition (%)” value in [1] (setting [11]) is 38.7%; in data set [1] (setting [12]), 6.0%; in data set [1] (setting [13]), 6.5%. Moreover, the “Compared to Saline group Inhibition (%)” value in [1] (setting [11]) was 51.4%; in [1] (setting [12]), 25.5%; in data set [1] (setting [13]), 25.5%. Further, the “Tumor size Mean ± SD” value in data set [1] (setting [11]) worked out at 1.03 ± 0.66 g; in data set [1] (setting [12]), 1.58 ± 0.42 g; in [1] (setting [13]), 1.57 ± 0.74 g. Also, in data set [7], the “Side effects resulting from long term use” value is “negligible”.

Regarding `N=C(N)NCc1cccc(I)c1` [MIBG, m-Iodpbenzylguanidine], the “Reduction of extracellular pH of tumor” value in data set [8] is given as “up to 0.59 units”.

Regarding `C1N2CN3CN1CN(C2)C3` [URIN, Methenamine], the “Tumor Size (Mean ± SD, g)” value in data set [2] (Table 1.2, URIN 4480 mg/kg i.p., 2 doses/day, no glucose) came out at 1.07 ± 0.31 g; in data set [1] (setting [14]), 1.37 ± 0.39 g. Besides, the “Tumor Inhibition (%)” value in [2] (Table 1.2, URIN 4480 mg/kg i.p., 2 doses/day, no glucose, vs saline) was 21.9%; in data set [1] (setting [14]), 41.2%; in data set [4] (setting [15]) it was 32.1%; in [4] (setting [16]), 16.7%; in data set [4] (URIN M 2800 mg/kg i.p., glucose pre-treatment, value in bracket = increased rate), “(−14.6%)”. The “Tumor Weight (Mean ± SD, g)” value turned out to be 1.25 ± 0.41 g in [2] (URIN H 4480 mg/kg i.p., 2 doses/day, glucose pre-treatment); 1.54 ± 0.56 g in data set [2] (URIN L 1680 mg/kg i.p., 2 doses/day, glucose pre-treatment); 1.57 ± 0.50 g in data set [2] (URIN M 2800 mg/kg i.p., 2 doses/day, glucose pre-treatment). The “Tumor Inhibition Rate (%)” value in [2] (URIN H 4480 mg/kg i.p., 2 doses/day, glucose pre-treatment, vs saline) stood at 36.2%; in data set [2] (URIN L 1680 mg/kg i.p., 2 doses/day, glucose pre-treatment, vs saline), 21.4%; in data set [2] (URIN M 2800 mg/kg i.p., 2 doses/day, glucose pre-treatment, vs saline), 19.9%. Moreover, the “In vivo growth of mouse tumor Sarcoma S-180 (conclusion)” value in data set [2] (administration of URIN) is “significantly inhibited”. Also, in data set [1] (administration of URIN), the “In vivo growth of mouse tumor Hepatoma H22 (conclusion)” value is “significantly inhibited”. The “Death from drug toxicity” value in data set [9] is “No mouse died of URIN toxicity”. In addition, the “Tumor Size (Mean ± SD, mm3)” value in data set [4] (setting [15]) was found to be 2755 ± 1098 mm3; in data set [4] (setting [16]), 3376 ± 1419 mm3; in [4] (URIN M 2800 mg/kg i.p., glucose pre-treatment) it was 4241 ± 1834 mm3. The “In vivo growth of mouse tumor B16 Melanoma (conclusion)” value in data set [4] (administration of URIN) is “significantly inhibited”. Moreover, the “Stability in a pH-neutral medium” value in data set [10] (pH-neutral medium) is listed as “very stable”. In addition, the “Liberation of formaldehyde in serum and normal tissue” value in [10] (serum and normal tissue) was “does not liberate formaldehyde”.
